Results as given in patent US20180206529A1, “FAST-DISSOLVING, CO-CRYSTALLINE FORMS OF SODIUM CHLORIDE” (NESTEC S.A., priority 2015, published 2018).

Columns and labels:
Format in all cases: physicochemical
[1] = Glucose NaCl kinetics of dissolution via refractometry; conditions: 60 mL of water, stirring, particle size 100-200 μm, average of three experiments
Method: The (Glucose)2⋅NaCl⋅H2O co-crystals of Example 3 were tested for their dissolution behavior by refractometry. The equipment used was a RFM300+ refractometer by Bellingham and Stanley. The test samples were added to 60 mL of water, and the dissolution was measured under stirring at 50 rpm using a refractometer with one measurement/second for […]. Every dissolution experiment was performed three times and the average value was calculated. The particle size was 100-200 μm.

[2] = Dissolution kinetics via microscopic analysis (video-microscopy of one individual crystal in water); conditions: 100-200 μm, fully immersed in 10 μL of water
Method: One individual crystal of sodium chloride, Glucose monohydrate, anhydrous Glucose and of (Glucose)2⋅NaCl⋅H2O co-crystal prepared according to the method of Example 3 was tested for its dissolution behavior by microscope. The analysis was performed in analogy to the method described by Quilaqueo et al. (“Dissolution of NaCl crystals in artificial saliva and water by video-microscopy”, Food Research International 69, 2015, p. 373-380).
A digital microscope was used to perform video-microscopy on the co-crystals and their respective individual components. Crystal size in general ranged between 100-200 μm. Images were recorded on a DFC450 digital microscope from Leica Microsystems with a high quality 5 Megapixel CCD sensor. The light intensity and contrast were controlled by using a VH-K20 Variable Illumination. The software used to record and analyze the video images was provided by the supplier of the module Leica LAS MultiTime.
One individual crystal specimen of sufficient quality and crystallinity was fixed on the microscope table using double-face adhesive tape. The crystal was fully immersed in 10 μL of water and the video recorded in parallel. The recording was dissected into individual film stills and the remaining crystalline area was determined until complete dissolution occurred using the respective software.
Applying this methodology, a first order kinetic was used to interpret the result:
Where At is the area (μm^2) of the remaining solid crystal at a time t (in seconds), A0 is the initial area (μm^2) of the crystal, t is the time (s) and k is the constant (s^−1).

[3] = Dissolution kinetics via refractometry for the system sucrose/sodium chloride; conditions: 60 mL of water, room temperature, constant stirring, particle size 63-100 μm
Method: Changes in refraction of the solution were measured at room temperature while adding a defined amount of solid material to the solvent (60 mL of water) under constant stirring. The equipment used is composed of a magnetic stirrer and a digital refractive index probe (Fiso technologies) capable of constant measurement. Once the powder is added, refractive indices are recorded as a function of time. This technique was used to compare the dissolution behavior of the sucrose⋅NaCl⋅H2O co-crystal with its pure individual components as well as the physical mixture of the two pure ingredients. The particle size of all solids was standardized to be in between 63-100 μm.
Quantities Used for the Measurements:
Sucrose⋅NaCl⋅H2O co-crystal 2.00 g

| dissolution speed (normalized refractive index versus time, FIG. 7) [3] | Structure (SMILES) | 10% dissolution reached at [1] [s] | 50% dissolution reached at [1] [s] | 90% dissolution reached at [1] [s] | k, constant of first order dissolution kinetic (crystal area over time) [2] [s⁻¹] | 90% dissolution reached at ([1]; listed as (Glucose)2⋅NaCl⋅H2O) [s] | 90% dissolution reached at ([1]; listed as (Glucose)2⋅NaCl⋅H2O co-crystals) [s] |
| --- | --- | --- | --- | --- | --- | --- | --- |
| – | OC[C@H]1OC(O)[C@H](O)[C@@H](O)[C@@H]1O (stereo partly drawn) [Anhydrous Glucose] | 6 | 17 | 289 | 0.14 | – | – |
| – | O.OC[C@H]1O[C@H](O)[C@H](O)[C@@H](O)[C@@H]1O [Glucose monohydrate, alpha-D-(+)-Glucose monohydrate] | 6 | 51 | 214 | 0.08 | – | – |
| dissolved almost as fast | O.O.OCC1OC(OC2(CO)OC(CO)C(O)C2O)C(O)C(O)C1O.[Cl-].[Na+] (stereo not drawn) [sucrose⋅NaCl⋅H2O co-crystal, Sucrose⋅NaCl⋅2 H2O] | – | – | – | – | – | – |
| – | O.OC[C@H]1O[C@H](O)[C@H](O)[C@@H](O)[C@@H]1O.OC[C@H]1O[C@H](O)[C@H](O)[C@@H](O)[C@@H]1O.[Cl-].[Na+] [(Glucose)2•NaCl•H2O co-crystal, (α-D-Glucose)2⋅NaCl⋅H2O] | 6 | 11 | 25 | 0.19 | 25 | ≤ 25 |
| dissolves much slower | OC[C@H]1O[C@@](CO)(O[C@H]2O[C@H](CO)[C@@H](O)[C@H](O)[C@H]2O)[C@@H](O)[C@@H]1O [Pure sucrose, (D)-(+)-Sucrose] | – | – | – | – | – | – |

| Structure (SMILES) | dissolution speed (normalized refractive index versus time, FIG. 7) [3] | 10% dissolution reached at [1] [s] | 50% dissolution reached at [1] [s] | 90% dissolution reached at [1] [s] | k, constant of first order dissolution kinetic (crystal area over time) [2] [s⁻¹] | 90% dissolution reached at ([1]; listed as (Glucose)2⋅NaCl⋅H2O) [s] | 90% dissolution reached at ([1]; listed as (Glucose)2⋅NaCl⋅H2O co-crystals) [s] |
| --- | --- | --- | --- | --- | --- | --- | --- |
| [Cl-].[Na+] [NaCl, sodium chloride] | dissolves the fastest | 4 | 8 | 29 | 0.21 | – | – |
